Experimental data: patent US10952988B2, “Methods for controlling the spread of dirofilariosis” (priority 2015, dated 2021)

Test system: Dirofilaria immitis (JYD-34) resistant strain
Conditions: in vivo

## milbemycin oxime
  average worms per dog: 7.2 worms per dog
  efficacy (adult worm reduction versus untreated Group 1): 70.7%
